Reference: patent US20240182382A1, “ALIPHATIC 18F-RADIOLABELING OF A TETRAZINE PRECURSOR” (UNIVERSITY OF COPENHAGEN, priority 2021, published 2024)
Blank lines part the entries; values can stand above or below the compound they belong to.

Key:
CC49-TCO [1] = assay: Ex vivo blocking assay: blocking of [111In]Tz-Tg binding to CC49-TCO in LS174T tumor xenografts; design: species or system nude BALB/c mice; details: for Normalized Tumor blocking effect: change in tumor uptake of [111In]Tz-Tg 22 h p.i., Tz administered 1 h prior, normalized to non-blocked control, mean from n = 3 mice/group
Description: FIG. 3 show a schematic display of the blocking assay. The blocking effect of non-radiolabeled Tz was determined as the change in tumor uptake of [111 1n]Tz-Tg 22 h p.i. Each Tz was administered 1 h prior to [111 1n]Tz-Tg and the uptake normalized to a group of animals were no blocking was performed (control).
The inventors have recently developed a blocking assay that allows to assess the in vivo ligation performance of unlabeled tetrazine derivatives. This assay omits time-consuming development of radiolabeled tetrazines for every ligand to be tested. In this assay, binding of [^111In]Tz-Tg (see structure in example 7), a literature described pretargeted imaging agent, is blocked in vivo to the pretargeting vector CC49-TCO (described in Stéen, J.; Jørgensen, J. T.; Christoph, D.; Battisti, U. M.; Nørregaard, K.; Edem, P.; Bratteby, K.; Shalgunov, V.; Martin, W.; Svatunek, D.; Poulie, C. B. M.; Hvass, L.; Simon, M.; Thomas, W.; Rossin, R.; Robillard, M.; Kristensen, J. L.; Mikula, H.; Kjaer, A.; Herth, M. Lipophilicity and Click Reactivity Determine the Performance of Bioorthogonal Tetrazine Tools in Pretargeted in Vivo Chemistry; 2020 Dec. 24, 2020.), which was administered 72 h prior. The blocking effect of the unlabeled tetrazine derivatives is afterwards quantified via an ex vivo biodistribution study and normalized to the binding of [^111In]Tz-Tg determined without any blocking.
All animal studies were approved by the Danish Animal Welfare Council, ministry of Justice. Five weeks old female nude BALB/c mice (Charles River, Sulzfeld, Germany) were allowed to acclimatize for one week with access to water and chow ad libitum. Human colon cancer cell line (LS174T; obtained from ATCC) was cultured in minimum essential medium (MEM) supplemented with 10% fetal bovine serum, 1% L-glutamine, 1% sodium pyruvate, 1% non-essential amino acids, and 1% penicillin-streptomycin at 37° C. and 5% CO2. Cells were harvested by trypsinization at a confluence of 70-90% and subcutaneous tumors were established in the left flank of the 6 weeks old animals by inoculation of 5×10^6 LS174T cells resuspended in sterile PBS (100 μL) and allowed to grow for 7-10 days. Tumors were measured using a caliper and the volume calculated using the formula volume=1/2 (length×width 2).
Tumor-bearing animals were matched in groups based on their tumor volume (tumor volumes of ˜100-300 mm^3, n=3 in each group) and were administered 100 μg/100 μL of CC49-TCO (100 μg/100 μL, ˜7 TCO/mAb) per mouse. After 3 days, animals were injected with non-radioactive Tz (10-20 nmol). After 1 h, they were administered with IniTz-Tg (˜13 MBq/100 μL, 1-2 nmol) via the tail vein. [^111In]Tz-Tg was obtained and radiolabeled as previously described in Borjesson, P. K.; Jauw, Y. W.; de Bree, R.; Roos, J. C.; Castelijns, J. A.; Leemans, C. R.; van Dongen, G. A.; Boellaard, R. Radiation dosimetry of 89 Zr-labeled chimeric monoclonal antibody U36 as used for immuno-PET in head and neck cancer patients. J Nucl Med 2009, 50, 1828-36. The mice were euthanized after 22 h and tumor, blood, heart, lung, liver, spleen, kidney, and muscle were resected. All tissues were weighted, and the radioactivity measured in a gamma counter (Wizard2, Perkin Elmer) and data was corrected for decay, tissue weight and injected amount of radioactivity. FIG. 3 illustrate the workflow of the blocking assay.

[2] = Bench stability by analytical HPLC; format: physicochemical
Description: The stability of [^18F]13 and it precursor (28) was investigated by analytical HPLC. [^18F]13 was stable for at least 4 hours and therefore, sufficient for most applications (FIG. 5A). […] The process could be prevented storing the precursor (28) at −20° C. as a solid—at least for 3 months (FIG. 5B).

[3] = Reaction kinetics of tetrazines with TCO (stopped-flow, pseudo-first-order); format: physicochemical; details: Second order rate constants with TCO at 37° C. in PBS
Description: Reaction kinetics of tetrazines with standard TCO were determined using pseudo-first-order measurements with an excess of the TCO compound in PBS (pH=7.4) at 37.0±0.1° C. following the decrease of tetrazine absorbance at 535 nm. Measurements were performed in triplicates using an SX20 stopped-flow photometer (Applied Photophysics, UK) equipped with a 535 nm LED light source. Data analysis was performed using Prism 6 (Graphpad) to determine the observed rate constants which were converted into secondorder rate constants through dividing by the TCO concentration.
Second-order rate constants for the reaction with TCO in PBS at 37° C. were determined by pseudo-first order measurements in a SX20 stopped flow photometer (Applied Photophysics).

CC49-TCO [4] = assay: Pretargeted PET/CT imaging in LS174T tumor xenograft bearing mice; format: in vivo, Balb/c nude mice; details: for tumor-to-blood (T/B) ratio: 1 h; for tumor uptake: mice pretreated with CC49-TCO 72 h prior; for tumor-to-muscle ratio in comparison: compared to [64Cu]Cu-NOTA-PEG7-H-Tz, [111In]Tz-Tg and ZZ; for tumor-to-muscle (T/M) ratio: image derived, 1 h p.i., animals pretargeted with CC49-TCO; for pharmacokinetics: pretargeted experiments in mice
Description: The ability of [^18F]13 and [^18F]14 to be used as a pretargeting imaging agents was evaluated using a similar pretargeted setup that was used for the ex vivo blocking study in example 7. Mice were administered with CC49-TCO 72 h prior to administration of [^18F]13 or [^18F]14 where after PET/CT scanning was performed 1 h later. Control animals were injected with unconjugated mAb CC49 instead of CC49-TCO, but were otherwise treated exactly the same. After PET/CT scanning, animals were euthanized and an ex vivo biodistribution performed.
A) Pretargeted imaging of [^18F]13: Pretargeted imaging of [^18F]13 as tested in vivo using the TAG-72 targeting antibody CC49 in human colorectal cancer xenograft tumors LS174T. Tumors were established in 7-8 week old Balb/c nude mice and after one week, the animals were injected i.v. with either 50 ug […] TCO-modified CC49 (CC49-TCO, ˜7 TCO/mAb), or non-modified CC49 (control) (n=4 per group). 72 hours later, ^18F-13 (1.74±0.319 (mean±SD) MBq/100 μL (55.3 GBq/μmol) were injected i.v., followed by PET/CT-scan (Inveon®, Siemens Medical Solutions), one hour post injection. PET data was acquired in an energy window of 350-650 KeV and a time resolution of 6 ns followed by a CT scan (360 projections, 65 kV, 500 pA and 400 ms). PET and CT images were aligned by rigid affine registration, after which 3D regions of interest (ROI) were created on the full CT tumor volume, as well as heart and muscle tissue to quantify uptake of [^18F]13 (FIG. 6). Additionally, selected organs were harvested for ex vivo biodistribution. The radioactivity in the tissues were determined using a gamma counter (Wizard 2 , Perkin Elmer). Data was corrected for decay, tissue weight and the injected dose of radioactivity. GraphPad Prism 9 (GraphPad Software) was used for statistical analyses and plotting data. Statistical difference between mean % ID/g values were analyzed using Welch's T-test. Results were considered significant when p<0.05.
B) Pretargeted imaging of [^18]14: LS174T xenografts were established in mice as previously described. When tumors reached a size of ˜100 mm3 animals were matched based on their tumor volume and divided into two groups (tumor volumes of, n=5/group), and injected iv with 50 μg in 100 μL of either CC49-TCO or CC49. After 72 h the animals were administered iv with [^18F ]14(4.74±1.39 MBq in 100 μL) and PET/CT (Inveon, Siemens Medical Solutions, USA) scanned 1 h later, using a PET acquisition time of 5 min, an energy window of 350-650 KeV and a time resolution of 6 ns;
followed by a continuous 360 projections/360° CT scan, acquired with a x-ray tube voltage of 65 kV, a tube anode current of 500 pA and an exposure time per projection of 400 ms (FIG. 8). Mice were anaesthetized breathing 3% sevoflurane (5% for induction) mixed in 35% O2 in N2 and during scans the body temperature of the mice was kept stable using a heating pad.
Signograms from PET scans were reconstructed using a 3-dimensional maximum a posteriori algorithm with correction for scatter and attenuation. The mean percentage of injected dose per grams (% ID/g) was determined by manually creating regions of interest (ROI) on co-registered PET/CT images (Inveon Research Workplace software, Siemens Medical Solutions, USA).

[5] = Tetrazine core reactivity test with TCO-PNP; format: physicochemical; details: for tetrazine core after radiolabeling: analytical chromatogram before and after TCO-PNP addition
Description: • a) The reaction between [^18F]13 TCO-PNP was performed by mixing the formulated [^18F]13 (200 μL) with 5 μL of the commercially available TCO-PNP ester dissolved in DMF (5 mg/mL) in an analytical HPLC vial. The solution was gently shaken and left for 1 min before it was injected on the analytical HPLC for analysis. • b) The reaction between [^18F]14 and TCO-PNB was performed by mixing the formulated [^18F]14 (200 μL) with 5 μL of the commercially available TCO-PNB ester dissolved in DMF (5 mg/mL) in an analytical HPLC vial. The solution was gently shaken and left for 1 min before it was injected on the analytical HPLC for analysis.

Structure (SMILES): O=C(O)C(F)(F)F.O=C(O)CN(CCF)Cc1cc(F)cc(-c2nncnn2)c1 [Compound 9, N-(carboxymethyl)-2-fluoro-N-(3-fluoro-5-(1,2,4,5-tetrazin-3-yl)benzyl)ethanaminium 2,2,2-trifluoroacetate]
Normalized Tumor blocking effect (CC49-TCO [1]): 76

Structure (SMILES): O=C(O)C(F)(F)F.O=C(O)CN(CCF)Cc1cccc(-c2nncnn2)c1 [Compound 10, N-(3-(1,2,4,5-tetrazin-3-yl)benzyl)-N-(carboxymethyl)-2-fluoroethanaminium 2,2,2-trifluoroacetate]
Normalized Tumor blocking effect (CC49-TCO [1]): 75

Structure (SMILES): O=C(O)C(F)(F)F.O=C(O)CN(CCF)Cc1ccc(-c2nncnn2)cc1F [Compound 11, N-(carboxymethyl)-2-fluoro-N-(2-fluoro-4-(1,2,4,5-tetrazin-3-yl)benzyl)ethanaminium 2,2,2-trifluoroacetate]
Normalized Tumor blocking effect (CC49-TCO [1]): 69

Structure (SMILES): O=C(O)C(F)(F)F.O=C(O)CN(CCF)Cc1ccc(-c2nncnn2)cc1 [Compound 12, N-(4-(1,2,4,5-tetrazin-3-yl)benzyl)-N-(carboxymethyl)-2-fluoroethanaminium 2,2,2-trifluoroacetate]
Normalized Tumor blocking effect (CC49-TCO [1]): 69

Structure (SMILES): O=C(O)C(F)(F)F.O=C(O)CN(CC(=O)O)Cc1ccc(-c2nncnn2)cc1OCCF [Compound 13, 1-Carboxy-N-(carboxymethyl)-N-(2-(2-fluoroethoxy)-4-(1,2,4,5-tetrazin-3-yl)benzyl) methanaminium 2,2,2-trifluoroacetate]
Normalized Tumor blocking effect (CC49-TCO [1]): 98

Structure (SMILES): O=C(O)C(F)(F)F.O=C(O)CN(CC(=O)O)Cc1ccc(-c2nnc(-c3ccc(OCCF)cn3)nn2)nc1 [Compound 14, 1-Carboxy-N-(carboxymethyl)-N-((6-(6-(5-(2-fluoroethoxy)pyridin-2-yl)-1,2,4,5-tetrazin-3-yl)pyridin-3-yl)methyl)methanaminium 2,2,2-trifluoroacetate]
blocking effect (CC49-TCO [1]; blocking of [111In]Tz-Tg binding to CC49-TCO in vivo): 99%
Normalized Tumor blocking effect (CC49-TCO [1]): 99

stability of precursor ([2]; analytical HPLC): decomposed over time
time stable ([2]; dissolved (25 mg/mL) in DMSO and frozen at −20° C.): at least 3 months
time stable ([2]; stored at −20° C. as a solid): ≥ 3 months
Structure (SMILES): CC(C)(C)OC(=O)CN(CC(=O)OC(C)(C)C)Cc1ccc(-c2nncnn2)cc1OCCOS(=O)(=O)c1ccc([N+](=O)[O-])cc1 [Compound 28, Di-tert-butyl 2,2′-((2-(2-(((4-nitrophenyl)sulfonyl)oxy)ethoxy)-4-(1,2,4,5-tetrazin-3-yl)benzyl)azanediyl)diacetate]

Structure (SMILES): O=C(O)CN(CC(=O)O)Cc1ccc(-c2nnc(-c3ccc(OCCF)cn3)nn2)nc1 [Tz-Tg, reference compound]
Rate constant [3]: 73742 M⁻¹ s⁻¹
Normalized Tumor blocking effect (CC49-TCO [1]): 99

Structure (SMILES): O=C(O)CN(CC(=O)O)Cc1ccc(-c2nncnn2)cc1OCC[18F] [[^18F]13]
tumor-to-blood (T/B) ratio (CC49-TCO [4]): 1.2
Uptake in tissues beside tumor and blood (CC49-TCO [4]; PET/CT 1 h p.i.): low
tumor uptake, control (CC49-TCO [4]; PET/CT 1 h p.i., control mice injected with unconjugated CC49 72 h prior, mean±S.E.M): 0.01±0.01 % ID/g
tumor uptake (CC49-TCO [4]; PET/CT 1 h p.i., mean±S.E.M): 1.87±0.31 % ID/g
tumor-to-muscle ratio in comparison (CC49-TCO [4]): highest
tumor-to-muscle (T/M) ratio (CC49-TCO [4]): 20.1
pharmacokinetics (CC49-TCO [4]): favorable
Stability at r.t. over 4 hours ([2]; after 4 hours at r.t.): no signs of decomposition
time stable ([2]; formulated tracer at r.t., analytical HPLC): at least 4 hours
ability to react with TCO-PNP ([5]; after 4 hours at r.t.): quantitatively
tetrazine core after radiolabeling [5]: intact

tetrazine core after radiolabeling [5]: intact
Structure (SMILES): O=C(O)CN(CC(=O)O)Cc1ccc(-c2nnc(-c3ccc(OCC[18F])cn3)nn2)nc1 [[^18F]14]
tumor-to-blood (T/B) ratio (CC49-TCO [4]): 0.8
Uptake in muscle tissue (CC49-TCO [4]; PET/CT 1 h p.i.): generally low
uptake in blood (heart used as a surrogate) (CC49-TCO [4]; PET/CT 1 h p.i., CC49-TCO group): high
tumor uptake (CC49-TCO [4]; PET/CT 1 h p.i., mean±S.E.M): 1.8±0.3 % ID/g
tumor-to-muscle ratio in comparison (CC49-TCO [4]): highest
tumor-to-muscle (T/M) ratio (CC49-TCO [4]): 9.0
pharmacokinetics (CC49-TCO [4]): favorable
